“Also recorded” adds a separate entry of the source.
Key:
[1] = test system: tonic extensive convulsion caused by pentylenetetrazole; test: Activity against convulsion caused by pentylenetetrazole in mice; format: in vivo, mouse (Slc:ddy male mice); conditions: oral
Protocol: In each group 4-8 Slc:ddy male mice weighing 24 to 32 g (5 weeks) were bred at room temperature of 22° to 24° C. under an environment of 60% humidity for 1 week, and then the bred mice were subjected to the following test. The test was carried out as the following procedure. One hour after the oral administration of a test compound, 40 mg/kg of pentylenetetrazole was administered in a caudal vein. Appearance of tonic extensive convulsion caused by pentylenetetrazole was measured as indication, and anticonvulsive activity was examined. Each of test compound was suspended in a 0.5% solution of methyl cellulose used as a control group.

[2] = test system: decapitation induced hypoxia; test: Activity against decapitation induced hypoxia in mice; format: in vivo, mouse (Slc:ddy male mice); conditions: oral; for inhibition in vivo at 10 mg/kg / inhibition in vivo at 30 mg/kg: Mus musculus, 1 h, 60 min before decapitation, duration of gasping vs control, read-out: Inhibition rate
Protocol: In each group five Slc:ddy male mice weighing 20 to 22 g (4 weeks) were employed. Sixty minutes after oral administration of a test compound, mice were decapitated with a guillotine. After the decapitation, duration of gasping of head was measured with a timer (CT-916 Type, made by HATTORI SEIKO CO., LTD.) gearing into the guillotine.
Each of test compound was suspended in a 0.5% solution of methyl cellulose and administered. Inhibition rate was calculated by comparing with a 0.5% aqueous solution of methyl cellulose as control. That is, the inhibition rate was calculated by the following formula. [formula]

[3] = test system: tonic extensive convulsion (maximal electroshock-induced seizures); test: Activity against maximal electroshock-induced seizures in mice; format: in vivo, mouse (Slc:ddy male mice); conditions: oral
Description: In each group six Slc: ddy male mice weighing 26 to 31 g (5 weeks) were employed. Sixty minutes after oral administration of a test compound, corneal electrodes which were wet by physiological saline were contacted with both eyes of a mouse. Then, appearance of tonic extensive convulsion (TE) caused by electrifying under a stimulation condition of 50 mA, 1000 V and 0.2 sec by means of the apparatus of Woodburg & Davenport (made by Kyoto Keisokuki) was judged as indication.
Each of diphenylhydantoin, the compounds Nos. 2, 4, 5, 6, 7, 50, 51 and 52 of the present invention (refer Table 1, hereinafter the same) and nimodipine was suspended in a 0.5% solution of methyl cellulose to subject the test. Flunarizine was suspended in a 5% solution of gum arabic to subject the test.

[4] = test system: immobility time of forced swimming test; test: Activity against immobility time of forced swimming test in mice; format: in vivo, mouse (Slc:ICR male mice); conditions: oral
Protocol: In each group 6 Slc:ICR male mice weighing 25 to 32 g (5 weeks) were bred at the room temperature of 22° to 24° C. under an environment of 60% humidity for 1 week, and then the bred mice were subjected to the following test. The test was carried out by monitering action to voluntarily escape with TV camera when a mouse was put into a cylinder of which inner diameter was 11 cm wherein 17 cm of water being the temperature 25° C. as added. As indication immobility time for 6 minutes was measured. In the test mice were employed which were compulsorily swun for 6 minutes in once per day for continuous 3 day. The investigation for immobility time was carried out by measuring immobility time for 6 minutes 1 hour after oral administration of a test compound. Each of test compound was suspended in a 0.5% solution of methyl cellulose used as a control group. Significant difference is shown with the significance level (* : p<0.05) obtained by comparing data of control group by LSD method.

blood pressure = test: Activity for blood pressure in rats; format: in vivo, rat (Wister male rats); conditions: oral; for Blood pressure: 100 mg/kg
Protocol: In each group 4 Wister male rats weighing 200 to 300 g (10 to 15 weeks) were employed. The day before a test, rats were anesthetized with eter, and a polyethylene tube was inserted into aorta abdominalis of a rat. The other end of the polyethylene tube was led out of the rat's body. The led polyethylene tube was connected with a pressure transducer (RM-85, made by Yamamoto Kohden). Blood pressure was measured under a condition of no restriction.

Acute toxicity in mice = test: Acute toxicity in mice; design: species or system mouse (Slc:ddy male mice); conditions: in vivo; mouse, oral administration, death rate after 7 days
Protocol: The compound No. 2 of the present invention was orally administered to 5-15 in each group Slc:ddy male mice weighing 24 to 32 g (5 weeks). With death rate after 7 days value of acute toxicity was measured.

[5] = administered over an extended period of time; cited from earlier work

C#Cc1cccc(C2C(C(=O)OCC)=C(C)NC(C)=C2C(=O)OCC)c1 [Compound No. 2, 3,5-Diethoxycarbonyl-1,4-dihydro-2,6-dimethyl-4-(3ethynylphenyl)pyridine]
effect on tonic extensive convulsion caused by pentylenetetrazole (in words) [1]: inhibited the tonic extensive convulsion; also recorded: approximately the same extent of the effect of the positive control drug diphenylhydantoin; also recorded: stronger effect than the effect of nimodipine and the effect of nicardipine | inhibition in vivo at 10 mg/kg [2]: 10.8% | inhibition in vivo at 30 mg/kg [2]: 20.5% | effect in decapitation induced hypoxia (in words) [2]: same extent effect as that of flunarizine; also recorded: stronger effect than that of nimodipine and that of nicardipine | inhibitory activity against tonic extensive convulsion (share of cases) ([3]; 100 mg/kg): two thirds | inhibitory activity against tonic extensive convulsion (share of cases) ([3]; 200 mg/kg): all cases | effect on the immobility time (in words) ([4]; 100 mg/kg): showed the effect on the immobility time | effect on immobility time of forced swimming test (in words) [4]: immobility time of forced swimming test reduced | Blood pressure (blood pressure; after 15 min.): 100.6 mmHg | Blood pressure (blood pressure; after 30 min.): 98.4 mmHg | Blood pressure (blood pressure; after 60 min.): 94.8 mmHg | Blood pressure (blood pressure; after 120 min.): 92.9 mmHg | activity for decreasing blood pressure (in words) (blood pressure; normal rats): very weak activity for decreasing blood pressure | LD50 at 168 h (Acute toxicity in mice): 534 mg/kg

Fc1ccc(C(c2ccc(F)cc2)N2CCN(C/C=C/c3ccccc3)CC2)cc1 [Flunarizine, reference compound]
side effects caused by central nervous system inhibitory activity [5]: Parkinson symptom and depression symptom | inhibition in vivo at 10 mg/kg [2]: 12.1% | inhibition in vivo at 30 mg/kg [2]: 24.3% | inhibitory activity against tonic extensive convulsion (share of cases) ([3]; 100 mg/kg): a third | inhibitory activity against tonic extensive convulsion (share of cases) ([3]; 200 mg/kg): five sixths | effect on immobility time of forced swimming test (in words) [4]: ineffective; also recorded: no effect

— US5158963A, “1-4-dihydropyridine derivative, process for preparing the same and pharmaceutical composition containing the same” (Kaken Pharmaceutical Co., Ltd., priority 1989, dated 1992)
